Data reported in paper PMC7447621, “Chemoenzymatic synthesis of daptomycin analogs active against daptomycin-resistant strains” (Applied Microbiology and Biotechnology, 2020).
Several values for one entry are separate records, joined by “and”; a condition that tells them apart may be missing. Identical values can stand only once. Like-named read-outs stand apart in the source and are kept apart here. Numbered stars: 1 amine (or outer) side, 2 acyl side, 3 side chain; on linkers, the order of the positions; unused ones are H or OH. Bridge positions count the residues as written; N and C are the ends. Square brackets hold non-standard residues; d marks the D form. Peptide text beside a SMILES is read from it. * marks the point of attachment. X11 = O=C([C@H](Cc1c[nH]c2cc(C/C=C/c3ccccc3)ccc12)N[*:1])[*:2]; X10 = C=C(C)/C=C/C(C)n1cc(C[C@H](N[*:1])C(=O)[*:2])c2ccccc21; X12 = C=C(C)/C=C/Cc1[nH]c2ccccc2c1C[C@H](N[*:1])C(=O)[*:2]; X1 = O=C([C@H](Cc1c[nH]c2cc(CC3=CCCCC3)ccc12)N[*:1])[*:2]; X8 = C=CC1(n2cc(C[C@H](N[*:1])C(=O)[*:2])c3ccccc32)CCCCC1; X2 = O=C([C@H](Cc1cn(CC=C2CCCCC2)c2ccccc12)N[*:1])[*:2]; X6 = CC/C(C)=C/Cn1cc(C[C@H](N[*:1])C(=O)[*:2])c2ccccc21; X4 = CCC(=CCn1cc(C[C@H](N[*:1])C(=O)[*:2])c2ccccc21)CC; X7 = O=C([C@H](Cc1cn(CC2=CCCCC2)c2ccccc12)N[*:1])[*:2]; X9 = CC(C)=CCn1cc(C[C@H](N[*:1])C(=O)[*:2])c2ccccc21; Glu(3R-Me) = C[C@H](CC(=O)O)[C@H](N)C(=O)O; Kyn = Nc1ccccc1C(=O)C[C@H](N)C(=O)O; Decanoyl = CCCCCCCCCC(=O)*; Orn = NCCC[C@H](N)C(=O)O

How the values were obtained:
[1] = test system: S. aureus (hVISA, SR220); conditions: DapS, VISA, BEI NR-50512; MIC90, broth microdilution, MHB + 50 mg L^−1 calcium, 35 °C, 22 h, A600, triplicate
[2] = test system: E. faecalis (S613); conditions: DapS, BEI HM-334, MIC90, broth microdilution, MHB + 50 mg L^−1 calcium, 35 °C, 22 h, A600, triplicate
[3] = test system: S. aureus (SAUSA300_1715 NE1656); conditions: DapR, strain JE2 transposon mutant NE1656, BEI NR-48198; MIC90, broth microdilution, MHB + 50 mg L^−1 calcium, 35 °C, 22 h, A600, triplicate
[4] = test system: S. aureus (SAUSA300_1713 NE573); conditions: DapR, strain JE2 transposon mutant NE573, BEI NR-47116; MIC90, broth microdilution, MHB + 50 mg L^−1 calcium, 35 °C, 22 h, A600, triplicate
[5] = test system: E. faecalis (R712); conditions: DapR, BEI HM-335; MIC90, broth microdilution, MHB + 50 mg L^−1 calcium, 35 °C, 22 h, A600, triplicate
[6] = test system: E. faecalis (hVRE, ATCC 700802); conditions: vancomycin-resistant Enterococcus; Table 1, Fig. S1
[7] = test system: S. aureus (ATCC 25923); conditions: DapS strain; MIC90, broth microdilution, MHB + 50 mg L^−1 calcium, inoculum 1×10^5–5×10^5 CFU/mL, 35 °C, 22 h, A600, triplicate; converted from μM
[8] = test system: DapR S. aureus

SMILES	MIC [1] [mg/L]	MIC [2]	MIC ([2]; listed as Dap)	MIC [3] [mg/L]	MIC [4] [mg/L]	MIC [5] [mg/L]	fold enhanced activity (compared with Dap) [6]	MIC [7] [mg/L]	MIC range ([8]; DapR S. aureus strains (Table 1), range over the named analogs and strains) [mg/L]	fold improvement in antibacterial activity over Dap ([8]; DapR S. aureus, relative potency, Fig. S1)
CCCCCCCCCC(=O)N[C@@H](Cc1c[nH]c2ccccc12)C(=O)N[C@H](CC(N)=O)C(=O)N[C@@H](CC(=O)O)C(=O)N[C@@H]1C(=O)NCC(=O)N[C@@H](CCCN)C(=O)N[C@@H](CC(=O)O)C(=O)N[C@H](C)C(=O)N[C@@H](CC(=O)O)C(=O)NCC(=O)N[C@H](CO)C(=O)N[C@@H]([C@H](C)CC(=O)O)C(=O)N[C@@H](CC(=O)c2ccccc2N)C(=O)O[C@@H]1C [DAP, Daptomycin]	4.0	16.2 µg/mL	~ 16 μg mL^−1	16.2	16.2	>32.4	–	–	–	–
CCCCCCCCCC(=O)N[C@@H](Cc1cn(CC=C(C)C)c2ccccc12)C(=O)N[C@H](CC(N)=O)C(=O)N[C@@H](CC(=O)O)C(=O)N[C@@H]1C(=O)NCC(=O)N[C@@H](CCCN)C(=O)N[C@@H](CC(=O)O)C(=O)N[C@H](C)C(=O)N[C@@H](CC(=O)O)C(=O)NCC(=O)N[C@H](CO)C(=O)N[C@@H]([C@H](C)CC(=O)O)C(=O)N[C@@H](CC(=O)c2ccccc2N)C(=O)O[C@@H]1C [compound 40, N1-Trp-prenyl-Dap] (Decanoyl-[X9][dN]DTG[Orn]D[dA]DG[dS][Glu(3R-Me)][Kyn]; ester 4-C)	0.5	–	–	–	–	33.7	–	–	–	–
CCCCCCCCCC(=O)N[C@@H](Cc1cn(C/C=C(\C)CC)c2ccccc12)C(=O)N[C@H](CC(N)=O)C(=O)N[C@@H](CC(=O)O)C(=O)N[C@@H]1C(=O)NCC(=O)N[C@@H](CCCN)C(=O)N[C@@H](CC(=O)O)C(=O)N[C@H](C)C(=O)N[C@@H](CC(=O)O)C(=O)NCC(=O)N[C@H](CO)C(=O)N[C@@H]([C@H](C)CC(=O)O)C(=O)N[C@@H](CC(=O)c2ccccc2N)C(=O)O[C@@H]1C [compound 42, N1-6-Dap] (Decanoyl-[X6][dN]DTG[Orn]D[dA]DG[dS][Glu(3R-Me)][Kyn]; ester 4-C)	0.5	1.1 µg/mL	–	–	–	17.0	5–15 fold	–	–	–
CCCCCCCCCC(=O)N[C@@H](Cc1cn(CC=C(CC)CC)c2ccccc12)C(=O)N[C@H](CC(N)=O)C(=O)N[C@@H](CC(=O)O)C(=O)N[C@@H]1C(=O)NCC(=O)N[C@@H](CCCN)C(=O)N[C@@H](CC(=O)O)C(=O)N[C@H](C)C(=O)N[C@@H](CC(=O)O)C(=O)NCC(=O)N[C@H](CO)C(=O)N[C@@H]([C@H](C)CC(=O)O)C(=O)N[C@@H](CC(=O)c2ccccc2N)C(=O)O[C@@H]1C [compound 44, N1-7-Dap] (Decanoyl-[X4][dN]DTG[Orn]D[dA]DG[dS][Glu(3R-Me)][Kyn]; ester 4-C)	0.5	0.3 to 0.6 µg/mL and 0.5 µg/mL	–	0.5	–	4.3	–	–	–	–
C=C(C)/C=C/Cc1[nH]c2ccccc2c1C[C@H](NC(=O)CCCCCCCCC)C(=O)N[C@H](CC(N)=O)C(=O)N[C@@H](CC(=O)O)C(=O)N[C@@H]1C(=O)NCC(=O)N[C@@H](CCCN)C(=O)N[C@@H](CC(=O)O)C(=O)N[C@H](C)C(=O)N[C@@H](CC(=O)O)C(=O)NCC(=O)N[C@H](CO)C(=O)N[C@@H]([C@H](C)CC(=O)O)C(=O)N[C@@H](CC(=O)c2ccccc2N)C(=O)O[C@@H]1C [compound 46, C2R-16-Dap] (Decanoyl-[X12][dN]DTG[Orn]D[dA]DG[dS][Glu(3R-Me)][Kyn]; ester 4-C)	17.0	–	–	–	–	–	–	–	–	–
C=C(C)/C=C/C(C)n1cc(C[C@H](NC(=O)CCCCCCCCC)C(=O)N[C@H](CC(N)=O)C(=O)N[C@@H](CC(=O)O)C(=O)N[C@@H]2C(=O)NCC(=O)N[C@@H](CCCN)C(=O)N[C@@H](CC(=O)O)C(=O)N[C@H](C)C(=O)N[C@@H](CC(=O)O)C(=O)NCC(=O)N[C@H](CO)C(=O)N[C@@H]([C@H](C)CC(=O)O)C(=O)N[C@@H](CC(=O)c3ccccc3N)C(=O)O[C@@H]2C)c2ccccc21 (stereo partly drawn) [compound 48, N1R-18-Dap] (Decanoyl-[X10][dN]DTG[Orn]D[dA]DG[dS][Glu(3R-Me)][Kyn]; ester 4-C)	–	–	–	–	–	17.1	–	17.1	–	–
C=CC1(n2cc(C[C@H](NC(=O)CCCCCCCCC)C(=O)N[C@H](CC(N)=O)C(=O)N[C@@H](CC(=O)O)C(=O)N[C@@H]3C(=O)NCC(=O)N[C@@H](CCCN)C(=O)N[C@@H](CC(=O)O)C(=O)N[C@H](C)C(=O)N[C@@H](CC(=O)O)C(=O)NCC(=O)N[C@H](CO)C(=O)N[C@@H]([C@H](C)CC(=O)O)C(=O)N[C@@H](CC(=O)c4ccccc4N)C(=O)O[C@@H]3C)c3ccccc32)CCCCC1 [compound 50, N1R-19-Dap] (Decanoyl-[X8][dN]DTG[Orn]D[dA]DG[dS][Glu(3R-Me)][Kyn]; ester 4-C)	–	–	–	–	–	17.3	–	–	–	–
CCCCCCCCCC(=O)N[C@@H](Cc1cn(CC=C2CCCCC2)c2ccccc12)C(=O)N[C@H](CC(N)=O)C(=O)N[C@@H](CC(=O)O)C(=O)N[C@@H]1C(=O)NCC(=O)N[C@@H](CCCN)C(=O)N[C@@H](CC(=O)O)C(=O)N[C@H](C)C(=O)N[C@@H](CC(=O)O)C(=O)NCC(=O)N[C@H](CO)C(=O)N[C@@H]([C@H](C)CC(=O)O)C(=O)N[C@@H](CC(=O)c2ccccc2N)C(=O)O[C@@H]1C [compound 51, N1-19-Dap] (Decanoyl-[X2][dN]DTG[Orn]D[dA]DG[dS][Glu(3R-Me)][Kyn]; ester 4-C)	1.1	1.3 µg/mL	–	2.6	1.3	5.2	5–15 fold	–	–	–
CCCCCCCCCC(=O)N[C@@H](Cc1c[nH]c2cc(CC3=CCCCC3)ccc12)C(=O)N[C@H](CC(N)=O)C(=O)N[C@@H](CC(=O)O)C(=O)N[C@@H]1C(=O)NCC(=O)N[C@@H](CCCN)C(=O)N[C@@H](CC(=O)O)C(=O)N[C@H](C)C(=O)N[C@@H](CC(=O)O)C(=O)NCC(=O)N[C@H](CO)C(=O)N[C@@H]([C@H](C)CC(=O)O)C(=O)N[C@@H](CC(=O)c2ccccc2N)C(=O)O[C@@H]1C [compound 52, C6-20-Dap] (Decanoyl-[X1][dN]DTG[Orn]D[dA]DG[dS][Glu(3R-Me)][Kyn]; ester 4-C)	0.5	0.3 to 0.6 µg/mL and 0.4 µg/mL	–	0.2	0.4	6.2	5–15 fold	–	0.2 to 0.5	30–80 fold
CCCCCCCCCC(=O)N[C@@H](Cc1cn(CC2=CCCCC2)c2ccccc12)C(=O)N[C@H](CC(N)=O)C(=O)N[C@@H](CC(=O)O)C(=O)N[C@@H]1C(=O)NCC(=O)N[C@@H](CCCN)C(=O)N[C@@H](CC(=O)O)C(=O)N[C@H](C)C(=O)N[C@@H](CC(=O)O)C(=O)NCC(=O)N[C@H](CO)C(=O)N[C@@H]([C@H](C)CC(=O)O)C(=O)N[C@@H](CC(=O)c2ccccc2N)C(=O)O[C@@H]1C [compound 53, N1-20-Dap] (Decanoyl-[X7][dN]DTG[Orn]D[dA]DG[dS][Glu(3R-Me)][Kyn]; ester 4-C)	–	17.1 µg/mL	–	17.1	17.1	>17.1	–	–	–	–
CCCCCCCCCC(=O)N[C@@H](Cc1c[nH]c2cc(C/C=C/c3ccccc3)ccc12)C(=O)N[C@H](CC(N)=O)C(=O)N[C@@H](CC(=O)O)C(=O)N[C@@H]1C(=O)NCC(=O)N[C@@H](CCCN)C(=O)N[C@@H](CC(=O)O)C(=O)N[C@H](C)C(=O)N[C@@H](CC(=O)O)C(=O)NCC(=O)N[C@H](CO)C(=O)N[C@@H]([C@H](C)CC(=O)O)C(=O)N[C@@H](CC(=O)c2ccccc2N)C(=O)O[C@@H]1C [compound 54, C6-22-Dap] (Decanoyl-[X11][dN]DTG[Orn]D[dA]DG[dS][Glu(3R-Me)][Kyn]; ester 4-C)	–	–	–	–	–	8.7	–	–	–	–
